# Laboratory results from ChEMBL document CHEMBL1146608, “Design and synthesis of pseudo-symmetric HIV protease inhibitors containing a novel hydroxymethylcarbonyl (HMC)-hydrazide isostere” (Bioorg Med Chem Lett, 2003).
# Assays:
# MT4 [1] = experiment: Cytotoxic effect against HIV-IIIB strain in MT-4 cells; type: functional; conditions: Homo sapiens, read-out: TD50 (the source's name)
# [2] = Selectivity index expressed as ratio of TD50 to EC50; type: functional
# [3] = target: Human immunodeficiency virus type 1 protease (Human immunodeficiency virus 1, UniProt Q72874); experiment: Inhibitory activity against HIV-1 protease
# MT4 [4] = experiment: Inhibitory concentration against HIV-IIIB strain in MT-4 cells; type: functional, cell-based; conditions: Homo sapiens
SMILES,CC50 (MT4 [1]),Therapeutic index [2],Ki [3],EC50 (MT4 [4])
CSC[C@H](NC(=O)OCc1cccc2cnccc12)C(=O)N[C@@H](Cc1ccccc1)[C@H](O)C(=O)N(Cc1ccccc1)NC(=O)COc1c(C)cccc1C,> 100 nM,> 53,0.25 nM,1.9 nM
CSC[C@H](NC(=O)OCc1cccc2cnccc12)C(=O)N[C@@H](Cc1ccccc1)[C@H](O)C(=O)N(Cc1ccccc1)NC(=O)c1cccc(O)c1C,23 nM,58,0.47 nM,0.4 nM
Cc1cccc(C)c1OCC(=O)N[C@@H](Cc1ccccc1)[C@H](O)C(=O)N(Cc1ccccc1)NC(=O)c1cccc(O)c1C,12 nM,11,3 nM,1.1 nM
Cc1cccc(C)c1OCC(=O)NN(Cc1ccccc1)C(=O)[C@@H](O)[C@H](Cc1ccccc1)NC(=O)c1cccc(O)c1C,12 nM,6.7,5.8 nM,1.8 nM
Cc1c(O)cccc1C(=O)N[C@@H](Cc1ccccc1)[C@@H](O)C(=O)N(Cc1ccccc1)NC(=O)c1cccc(O)c1C,91 nM,57,0.16 nM,1.6 nM
Cc1c(O)cccc1C(=O)N[C@@H](Cc1ccccc1)[C@H](O)C(=O)N(Cc1ccccc1)NC(=O)c1cccc(O)c1C,73 nM,66,15 nM,1.1 nM
Cc1cc(N)cc(C)c1OCC(=O)N[C@@H](Cc1ccccc1)[C@H](O)C(=O)N(Cc1ccccc1)NC(=O)c1cccc(O)c1C,35 nM,73,5 nM,0.48 nM
